Results on one compound are retold here after ChEMBL document CHEMBL6177980 (J Med Chem, 2025).

A short description of data set [1]: Cmax in fasted Cynomolgus monkey at 5 mg/kg, po by LC-MS/MS analysis. The note with it: in vivo. The class given is ADME, organism-based, Macaca fascicularis.
Data set [2] in a line: Cmax in fasted Sprague-Dawley rat at 5 mg/kg, iv by LC-MS/MS analysis. It is filed as ADME, organism-based. Conditions: in vivo.
Data set [3] is described as follows: Oral bioavailability in fasted Cynomolgus monkey at 5 mg/kg by LC-MS/MS analysis. Conditions: in vivo. It is filed as ADME, organism-based, Macaca fascicularis.
Data set [4] is described as follows: Stability of compound at pH 1.5 assessed as change in purity at 1 mg/ml incubated for 24 hrs by HPLC analysis. It is filed as physicochemical. The note with it: buffer, pH 1.5, 24 h.
The nature of data set [5]: AUC (0 to t) in fasted Sprague-Dawley rat at 10 mg/kg, po by LC-MS/MS analysis. Conditions: in vivo. The class given is ADME, organism-based.
Data set [6] is described as follows: Half life in fasted Cynomolgus monkey at 5 mg/kg, po by LC-MS/MS analysis. The note with it: in vivo. The class given is ADME, organism-based, Macaca fascicularis.
The nature of data set [7]: Cmax in fasted Sprague-Dawley rat at 10 mg/kg, po by LC-MS/MS analysis. It is filed as ADME, organism-based. Conditions: in vivo.
Data set [8] can be described thus: Stability of compound at pH 6.8 assessed as change in purity at 1 mg/ml incubated for 24 hrs by HPLC analysis. Conditions: buffer, pH 6.8, 24 h. It is filed as physicochemical.
A short description of data set [9]: Stability of compound at pH 4.0 assessed as change in purity at 1 mg/ml incubated for 12 hrs by HPLC analysis. It is filed as physicochemical. The note with it: buffer, pH 4, 12 h.
Data set [10] can be described thus: Stability in SIF assessed as compound degradation measured for 24 hrs by HPLC analysis. It is filed as physicochemical. The note with it: simulated intestinal fluid (SIF), read-out: Drug degradation.
Data set [11] can be described thus: Stability of compound at pH 1.5 assessed as change in purity at 1 mg/ml incubated for 12 hrs by HPLC analysis. The class given is physicochemical. Conditions: buffer, pH 1.5, 12 h.
A short description of data set [12]: Stability of compound at pH 4.0 assessed as change in purity at 1 mg/ml incubated for 4 hrs by HPLC analysis. It is filed as physicochemical. The note with it: buffer, pH 4, 4 h.
A short description of data set [13]: Half life in fasted Cynomolgus monkey at 2 mg/kg, iv by LC-MS/MS analysis. It is filed as ADME, organism-based, Macaca fascicularis. Conditions: in vivo.
Data set [14] is described as follows: Stability in SGF assessed as compound degradation measured for 24 hrs by HPLC analysis. The class given is physicochemical. Conditions: simulated gastric fluid (SGF), read-out: Drug degradation.
The nature of data set [15]: Stability of compound at pH 6.8 assessed as change in purity at 1 mg/ml incubated for 12 hrs by HPLC analysis. The class given is physicochemical. The note with it: buffer, pH 6.8, 12 h.
Data set [16] is described as follows: Cmax in fasted Cynomolgus monkey at 2 mg/kg, iv by LC-MS/MS analysis. The note with it: in vivo. The class given is ADME, organism-based, Macaca fascicularis.
Data set [17] can be described thus: Stability of compound at pH 1.5 assessed as change in purity at 1 mg/ml incubated for 4 hrs by HPLC analysis. The class given is physicochemical. The note with it: buffer, pH 1.5, 4 h.
Data set [18] is described as follows: AUC (0 to t) in fasted Cynomolgus monkey at 5 mg/kg, po by LC-MS/MS analysis. The class given is ADME, organism-based, Macaca fascicularis. The note with it: in vivo.
A short description of data set [19]: Stability of compound at pH 4.0 assessed as change in purity at 1 mg/ml incubated for 24 hrs by HPLC analysis. The class given is physicochemical. Conditions: buffer, pH 4, 24 h.
A short description of data set [20]: AUC (0 to t) in fasted Cynomolgus monkey at 2 mg/kg, iv by LC-MS/MS analysis. It is filed as ADME, organism-based, Macaca fascicularis. The note with it: in vivo.
Data set [21] in a line: AUC (0 to t) in fasted Sprague-Dawley rat at 5 mg/kg, iv by LC-MS/MS analysis. It is filed as ADME, organism-based. The note with it: in vivo.
A short description of data set [22]: Stability of compound at pH 6.8 assessed as change in purity at 1 mg/ml incubated for 4 hrs by HPLC analysis. The class given is physicochemical. The note with it: buffer, pH 6.8, 4 h.

Usually Cmax stands for the highest concentration seen after dosing. One may read the bioavailability as the share of a dose that reaches the circulation, judged against a reference dose that is usually intravenous. The term AUC(0-t) denotes the area under the concentration-time curve up to a stated or last time point. One may read the half-life as how long it takes for the measured level to halve. Take `O=c1ccn([C@@H]2O[C@](F)(CO)[C@@H](O)[C@H]2O)c(=O)[nH]1`: the Cmax was 2850 ng/mL in data set [1], 2900 ng/mL in data set [2], 1740 ng/mL in data set [7] and 2530 ng/mL in [16]. Further, the bioavailability in data set [3] was found to be 62.9%. For the same compound, the Activity in [4] is recorded as -86.9%; in data set [8], -67.1%; in data set [9], -24.9%; in data set [11] it was -64.4%; in data set [12] it was -8.8%; in data set [15] it was -44.8%. Also, the Activity in [17] is on record as -27.9%; in data set [19], -43.5%; in data set [22] it was -18.1%. The AUC(0-t) in data set [5] is 13000 ng·h/mL; in data set [18], 11600 ng·h/mL; in data set [20] it was 4830 ng·h/mL; in data set [21], 7810 ng·h/mL. The half-life in data set [6] was 308 min; in data set [13] it was 260 min. Moreover, the degraded at 24 h in data set [10] and in data set [14] was above 80% each time.
